US9067949B2, “Benzofuro[3,2-c] pyridines and related analogs as serotonin sub-type 6 (5-HT6) modulators for the treatment of obesity, metabolic syndrome, cognition and schizophrenia” (Albany Molecular Research, Inc., priority 2011, dated 2015)
pKi: −log10 of the molar value. Where a name gives a salt, the structure may show the parent alone.

Target: human 5-HT6 receptor (Homo sapiens (Human), UniProt P50406)
Test: 5-HT6 radioligand binding assay (SPA format, [N-methyl-3H]-LSD)
Conditions: human 5-HT6 receptor membranes, 10 nM [N-methyl-3H]-LSD; Ki by Cheng-Prusoff; hydrochloride; read-out: human 5HT6 Ki
Protocol: The relative affinities of the various compounds for the 5-HT6 receptor were measured in a radioligand binding assay, using a scintillation proximity assay (SPA) format.
For binding analysis vs. the human receptor, samples were incubated in 50 mM Tris-HCl, pH 7.5, 5 mM MgCl2, 1 mM EDTA (4% DMSO final) with 10 nM [N-methyl-^3H]-LSD (Perkin Elmer), 2.5 ng of human 5-HT6 receptor membranes (Millipore) and 50 μg SPA beads (PVT-PEI-WGA, GE Healthcare) per well in a final volume of 0.2 mL. […] Binding reactions were performed in PicoPlate96 microtiter plates (Perkin Elmer) by consecutively adding 50 μL of each competing compound or buffer, SPA beads, radioligand and 5-HT6 receptor membranes. After an overnight incubation at room temperature on a Nutator mixer, plates were centrifuged for 15 min at 1,500 rpm, followed by incubation in the dark for 10 min. […] Total binding control contained compound dilution buffer only; nonspecific binding is determined in the presence of 100 μM 5-hydroxytryptamine. Specific binding was determined by subtracting nonspecific binding from total binding.
All experiments were performed in duplicate using ten concentrations of competing ligand, with clozapine included as a control in every run. IC50 values were determined from specific binding data using XLfit4.1 curve fitting software from IDBS Ltd. The inhibition constant (Ki) was calculated using the Cheng-Prusoff equation: (Ki=IC50/(1+(L/KD)), where L=concentration of radioligand in the assay, and KD=affinity of the radioligand for the receptor.

Chain of human 5-HT6 receptor (P50406 whole entry): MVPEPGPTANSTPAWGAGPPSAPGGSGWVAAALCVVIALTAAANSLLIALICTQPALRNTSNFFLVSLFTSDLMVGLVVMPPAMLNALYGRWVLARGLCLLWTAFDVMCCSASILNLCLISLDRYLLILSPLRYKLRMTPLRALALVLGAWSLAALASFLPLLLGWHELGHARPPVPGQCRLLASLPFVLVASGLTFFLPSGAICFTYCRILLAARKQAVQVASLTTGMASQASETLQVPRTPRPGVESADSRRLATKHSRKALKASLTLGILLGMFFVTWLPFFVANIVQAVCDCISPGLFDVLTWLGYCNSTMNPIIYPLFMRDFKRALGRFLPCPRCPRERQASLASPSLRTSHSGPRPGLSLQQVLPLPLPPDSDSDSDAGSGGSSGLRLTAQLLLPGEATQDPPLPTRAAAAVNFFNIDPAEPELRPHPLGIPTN

Point of comparison: `CC1Cc2oc3c(Cl)cc(S(=O)(=O)c4ccccc4)cc3c2CN1` (single isomer, unassigned; (+)) [Example 83b, (+) 6-chloro-3-methyl-8-(phenylsulfonyl)-1,2,3,4-tetrahydrobenzofuro[3,2-c]pyridine hydrochloride], pKi 7.80. Against it:
- CC1Cc2oc3c(Cl)cc(S(=O)(=O)c4ccccc4)cc3c2CN1 (racemic) [Example 81b, 6-chloro-3-methyl-8-(phenylsulfonyl)-1,2,3,4-tetrahydrobenzofuro[3,2-c]pyridine hydrochloride] — within 0.2 log units, 7.72

Same assay, conditions: human 5-HT6 receptor membranes, 10 nM [N-methyl-3H]-LSD; Ki by Cheng-Prusoff; read-out: human 5HT6 Ki

Point of comparison: `CC(O)c1cc(S(=O)(=O)c2ccccc2)cc2c3c(oc12)CCNC3` (stereo not drawn) [Example 221], pKi 8.24. Against it:
- COc1cc(S(=O)(=O)c2cccc(OC(F)F)c2)cc2c3c(oc12)CCNC3 [Example 160] — 1.72 log units higher, 9.96
- COc1cc(S(=O)(=O)c2ccc(C(F)(F)F)cc2)cc2c3c(oc12)CCNC3 [Example 162] — 1.07 log units higher, 9.31
- O=S(=O)(c1ccccc1)c1cc(-c2cc[nH]n2)c2oc3c(c2c1)CNCC3 [Example 224] — within 0.2 log units, 8.35
- C[C@H](O)c1ccc(S(=O)(=O)c2cc(Cl)c3oc4c(c3c2)CNCC4)cc1 [Example 140] — 0.44 log units lower, 7.80
- Cc1cc(S(=O)(=O)c2cccc(OC(F)F)c2)cc2c3c(oc12)CCNC3 [Example 202] — 1.28 log units higher, 9.52
- O=S(=O)(c1ccc(-n2cccn2)cc1)c1cc(Cl)c2oc3c(c2c1)CNCC3 [Example 104] — 0.65 log units lower, 7.59
- COc1cc(S(=O)(=O)c2ccc(F)cc2)cc2c3c(oc12)CCNC3 [Example 169] — 0.88 log units higher, 9.12
- O=S(=O)(c1cc(Cl)c2oc3c(c2c1)CNCC3)c1ccccc1C(F)(F)F [Example 153] — within 0.2 log units, 8.21
- O=S(=O)(c1cc(Cl)c2oc3c(c2c1)CNCC3)c1csc2ccccc12 [Example 133] — 1.35 log units higher, 9.59
- COc1cc(S(=O)(=O)c2ccc(F)c(F)c2)cc2c3c(oc12)CCNC3 [Example 161] — 1.25 log units higher, 9.49
- CN(C)CC(=O)N1CCc2oc3c(Cl)cc(S(=O)(=O)c4ccccc4)cc3c2C1 [Example 145] — 1.06 log units lower, 7.18
- O=S(=O)(c1ccc(F)c(F)c1)c1cc(Cl)c2oc3c(c2c1)CNCC3 [Example 127] — within 0.2 log units, 8.40
- O=S(=O)(c1ccccc1)c1cc(Cl)c2oc3c(c2c1)CN(c1cccnc1)CC3 [Example 115] — 1.33 log units lower, 6.91
- COc1cc(S(=O)(=O)c2ccc(C(C)(C)O)cc2)cc2c3c(oc12)CCNC3 [Example 176] — 0.89 log units higher, 9.13
- O=S(=O)(c1ccc(OC(F)F)cc1)c1cc(Cl)c2oc3c(c2c1)CNCC3 [Example 113] — 0.42 log units higher, 8.66
- O=S(=O)(c1cccc(-n2cccn2)c1)c1cc(Cl)c2oc3c(c2c1)CNCC3 [Example 103] — 0.42 log units higher, 8.66
- CC(O)c1cccc(S(=O)(=O)c2cc(Cl)c3oc4c(c3c2)CNCC4)c1 (stereo not drawn) [Example 136] — 0.28 log units higher, 8.52
- C[C@@H](O)c1ccc(S(=O)(=O)c2cc(Cl)c3oc4c(c3c2)CNCC4)cc1 [Example 141] — 0.27 log units higher, 8.51
- COc1cccc(S(=O)(=O)c2cc(Cl)c3oc4c(c3c2)CNCC4)c1 [Example 123] — 0.68 log units higher, 8.92
- Cc1cc(S(=O)(=O)c2cccc(C(F)(F)F)c2)cc2c3c(oc12)CCNC3 [Example 201] — 1.42 log units higher, 9.66
- O=S(=O)(c1ccccc1)c1cc(-n2cccn2)c2oc3c(c2c1)CNCC3 [Example 76, 8-(phenylsulfonyl)-6-(1H-pyrazol-1-yl)-1,2,3,4-tetrahydrobenzofuro[3,2-c]pyridine hydrochloride] — 0.21 log units lower, 8.03
- COc1cc(S(=O)(=O)c2ccc([C@@H](C)O)cc2)cc2c3c(oc12)CCNC3 [Example 172] — 0.48 log units higher, 8.72
- COc1cc(S(=O)(=O)c2cccs2)cc2c3c(oc12)CCNC3 [Example 192] — 1.53 log units higher, 9.77
- [O-][S+](c1ccccc1)c1cc(Cl)c2oc3c(c2c1)CNCC3 (stereo not drawn) [Example 232] — 0.70 log units lower, 7.54
- COc1cc(S(=O)(=O)c2ccc(C(C)O)cc2)cc2c3c(oc12)CCNC3 (stereo not drawn) [Example 170] — 0.30 log units higher, 8.54
- O=S(=O)(c1ccc(C(O)C(F)(F)F)cc1)c1cc(Cl)c2oc3c(c2c1)CNCC3 (stereo not drawn) [Example 131] — within 0.2 log units, 8.12
- COc1cc(S(=O)(=O)c2cccc(F)c2)cc2c3c(oc12)CCNC3 [Example 166] — 1.46 log units higher, 9.70
- O=S(=O)(c1cc(Cl)cc(Cl)c1)c1cc(Cl)c2oc3c(c2c1)CNCC3 [Example 130] — within 0.2 log units, 8.22
- CC(C)(O)c1cc(S(=O)(=O)c2ccccc2)cc2c3c(oc12)CCNC3 [Example 220] — 0.98 log units lower, 7.26
- O=S(=O)(c1ccccc1)c1cc(OCCO)c2oc3c(c2c1)CNCC3 [Example 217] — 0.56 log units higher, 8.80
- COc1cc(S(=O)(=O)c2ccc([C@H](C)O)cc2)cc2c3c(oc12)CCNC3 [Example 171] — within 0.2 log units, 8.07
- COc1cc(S(=O)(=O)c2cccc(OC(F)(F)F)c2)cc2c3c(oc12)CCNC3 [Example 168] — 1.48 log units higher, 9.72
- COc1cc(S(=O)(=O)c2csc3ccccc23)cc2c3c(oc12)CCNC3 [Example 185] — 1.76 log units higher, 10.00
- CCN1CCc2oc3c(Cl)cc(S(=O)(=O)c4ccccc4)cc3c2C1 [Example 117] — 0.68 log units higher, 8.92
- COc1cc(S(=O)(=O)c2ccccc2F)cc2c3c(oc12)CCNC3 [Example 163] — 1.48 log units higher, 9.72
- CC(C)(O)CN1CCc2oc3c(Cl)cc(S(=O)(=O)c4ccccc4)cc3c2C1 [Example 147] — 0.68 log units higher, 8.92
- O=S(=O)(c1ccccc1)c1cc(Cl)c2oc3c(c2c1)CN(CCO)CC3 [Example 146] — 0.56 log units higher, 8.80
- O=S(=O)(c1ccccc1)c1cc(OC(F)F)c2oc3c(c2c1)CNCC3 [Example 216] — 1.24 log units higher, 9.48
- C[C@H](O)c1cccc(S(=O)(=O)c2cc(Cl)c3oc4c(c3c2)CNCC4)c1 [Example 138] — within 0.2 log units, 8.29
- O=S(=O)(c1ccccc1)c1cc(C(F)(F)F)c2oc3c(c2c1)CNCC3 [Example 205] — 0.44 log units higher, 8.68
- O=S(=O)(c1ccc2sccc2c1)c1cc(Cl)c2oc3c(c2c1)CNCC3 [Example 134] — 1.02 log units higher, 9.26
- CC(C)(O)c1ccccc1S(=O)(=O)c1cc(Cl)c2oc3c(c2c1)CNCC3 [Example 142] — 0.64 log units lower, 7.60
- O=S(=O)(c1ccc2c(c1)COC2)c1cc(Cl)c2oc3c(c2c1)CNCC3 [Example 156] — within 0.2 log units, 8.12
- COc1cc(S(=O)(=O)c2cc(F)cc(F)c2)cc2c3c(oc12)CCNC3 [Example 186] — 1.24 log units higher, 9.48
- O=S(=O)(c1ccc(F)cc1)c1cc(F)c2oc3c(c2c1)CNCC3 [Example 207] — 0.88 log units lower, 7.36
- COc1cc(S(=O)(=O)c2cn(C)c3ccccc23)cc2c3c(oc12)CCNC3 [Example 183] — 1.56 log units higher, 9.80
- O=S(=O)(c1cccc(Cl)c1)c1cc(Cl)c2oc3c(c2c1)CNCC3 [Example 46, 6-Chloro-8-(3-chlorophenylsulfonyl)-1,2,3,4-tetrahydrobenzofuro[3,2-c]pyridine hydrochloride] — 1.22 log units higher, 9.46
- Cn1cc(-c2cc(S(=O)(=O)c3ccccc3)cc3c4c(oc23)CCNC4)cn1 [Example 225] — 0.28 log units lower, 7.96
- O=S(=O)(c1ccccc1)c1cc(OC(F)(F)F)c2oc3c(c2c1)CNCC3 [Example 214] — 0.82 log units higher, 9.06
- N#Cc1cc(S(=O)(=O)c2cccc(F)c2)cc2c3c(oc12)CCNC3 [Example 73, 8-(3-fluorophenylsulfonyl)-1,2,3,4-tetrahydrobenzofuro[3,2-c]pyridine-6-carbonitrile hydrochloride] — within 0.2 log units, 8.37
- Cc1cc(S(=O)(=O)c2cccc(Cl)c2)cc2c3c(oc12)CCNC3 [Example 195] — 1.31 log units higher, 9.55
- O=S(=O)(c1ccccc1)c1cc(Cl)c2oc3c(c2c1)CCNCC3 [Example 90, 7-chloro-9-(phenylsulfonyl)-2,3,4,5-tetrahydro-1H-benzofuro[2,3-d]azepine hydrochloride] — 1.36 log units higher, 9.60
- O=S(=O)(c1ccccc1)c1cc(-n2cncn2)c2oc3c(c2c1)CNCC3 [Example 226] — 1.27 log units lower, 6.97
- O=S(=O)(c1ccc2c(c1)COCC2)c1cc(Cl)c2oc3c(c2c1)CNCC3 [Example 105] — 0.35 log units lower, 7.89
- CC(C)(O)c1cccc(S(=O)(=O)c2cc(Cl)c3oc4c(c3c2)CNCC4)c1 [Example 107] — 0.86 log units higher, 9.10
- O=S(=O)(c1cc(Cl)c2oc3c(c2c1)CNCC3)c1ccccc1CO [Example 122] — within 0.2 log units, 8.27
- CN(C)C(=O)C1NCCc2oc3c(Cl)cc(S(=O)(=O)c4ccccc4)cc3c21 (stereo not drawn) [Example 88, 6-chloro-N,N-dimethyl-8-(phenylsulfonyl)-1,2,3,4-tetrahydrobenzofuro[3,2-c]pyridine-1-carboxamide hydrochloride] — 1.64 log units lower, 6.60
- O=S(=O)(c1ccccc1)c1cc(Cl)c2oc3c(c2c1)C(CF)NCC3 (stereo not drawn) [Example 87, 6-chloro-1-fluoromethyl-8-phenylsulfonyl-1,2,3,4-tetrahydrobenzofuro[3,2-c]pyridine hydrochloride] — within 0.2 log units, 8.40
- COc1cc(S(=O)(=O)c2ccsc2)cc2c3c(oc12)CCNC3 [Example 187] — 1.33 log units higher, 9.57
- O=S(=O)(c1cccc(C(O)C(F)(F)F)c1)c1cc(Cl)c2oc3c(c2c1)CNCC3 (stereo not drawn) [Example 132] — 0.24 log units higher, 8.48
- O=S(=O)(c1cccnc1)c1cc(Cl)c2oc3c(c2c1)CNCC3 [Example 120] — 0.65 log units lower, 7.59
- C[C@@H](O)c1cccc(S(=O)(=O)c2cc(Cl)c3oc4c(c3c2)CNCC4)c1 [Example 139] — 0.33 log units higher, 8.57
- O=S(=O)(c1cncc(Cl)c1)c1cc(Cl)c2oc3c(c2c1)CNCC3 [Example 119] — 0.54 log units lower, 7.70
